Activity data for 1 compound are collected here from ChEMBL document CHEMBL2073742, “The rat canalicular conjugate export pump (Mrp2) is down-regulated in intrahepatic and obstructive cholestasis” (Gastroenterology, 1997).

The target in the data set is ATP-binding cassette sub-family C member 2 (Rattus norvegicus, UniProt Q63120). Put plainly: TP_TRANSPORTER: Western in vivo, liver of SD rat. Format: functional, organism-based, Sprague-Dawley.

Structures are written as SMILES.

Chain of ATP-binding cassette sub-family C member 2 (Q63120 whole entry): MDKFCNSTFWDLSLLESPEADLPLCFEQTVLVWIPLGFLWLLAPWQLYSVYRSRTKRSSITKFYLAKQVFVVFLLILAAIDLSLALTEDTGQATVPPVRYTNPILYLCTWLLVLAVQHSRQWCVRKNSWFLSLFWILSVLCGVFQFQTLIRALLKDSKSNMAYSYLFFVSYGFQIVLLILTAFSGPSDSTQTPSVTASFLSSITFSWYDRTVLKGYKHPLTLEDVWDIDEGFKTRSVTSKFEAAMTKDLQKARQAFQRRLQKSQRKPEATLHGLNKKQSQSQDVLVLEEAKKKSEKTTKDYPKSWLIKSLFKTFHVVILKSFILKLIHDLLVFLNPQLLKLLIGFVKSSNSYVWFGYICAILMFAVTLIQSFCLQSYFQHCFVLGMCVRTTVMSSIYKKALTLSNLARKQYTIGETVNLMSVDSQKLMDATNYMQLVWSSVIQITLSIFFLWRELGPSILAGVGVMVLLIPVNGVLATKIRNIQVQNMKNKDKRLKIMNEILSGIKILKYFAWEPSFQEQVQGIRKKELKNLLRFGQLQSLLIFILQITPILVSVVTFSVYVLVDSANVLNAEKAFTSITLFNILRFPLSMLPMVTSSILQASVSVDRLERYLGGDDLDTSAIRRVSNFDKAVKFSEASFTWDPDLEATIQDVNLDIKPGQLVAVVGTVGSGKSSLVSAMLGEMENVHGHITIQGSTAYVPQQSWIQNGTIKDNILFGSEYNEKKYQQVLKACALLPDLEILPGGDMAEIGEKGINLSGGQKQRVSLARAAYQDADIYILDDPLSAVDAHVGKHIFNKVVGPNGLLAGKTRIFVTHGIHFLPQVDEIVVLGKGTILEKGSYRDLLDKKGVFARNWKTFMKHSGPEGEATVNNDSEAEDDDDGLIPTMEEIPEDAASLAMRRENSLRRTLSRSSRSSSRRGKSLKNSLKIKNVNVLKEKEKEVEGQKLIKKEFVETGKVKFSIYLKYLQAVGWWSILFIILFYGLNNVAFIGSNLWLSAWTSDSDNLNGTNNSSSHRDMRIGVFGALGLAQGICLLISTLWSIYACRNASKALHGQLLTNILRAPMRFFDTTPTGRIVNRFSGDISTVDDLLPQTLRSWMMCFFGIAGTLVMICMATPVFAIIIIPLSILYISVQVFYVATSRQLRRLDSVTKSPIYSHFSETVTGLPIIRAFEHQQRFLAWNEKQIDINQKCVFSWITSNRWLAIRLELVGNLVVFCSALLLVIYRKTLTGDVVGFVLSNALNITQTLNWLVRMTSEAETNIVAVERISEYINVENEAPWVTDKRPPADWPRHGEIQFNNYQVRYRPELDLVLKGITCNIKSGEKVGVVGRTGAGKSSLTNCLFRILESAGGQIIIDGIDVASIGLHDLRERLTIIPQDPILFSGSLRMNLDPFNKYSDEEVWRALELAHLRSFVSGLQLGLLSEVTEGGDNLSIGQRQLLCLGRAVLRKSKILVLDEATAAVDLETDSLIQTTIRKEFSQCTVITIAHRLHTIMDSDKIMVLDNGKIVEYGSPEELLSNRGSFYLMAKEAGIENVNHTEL

Regarding `C#C[C@]1(O)CC[C@H]2[C@@H]3CCc4cc(O)ccc4[C@H]3CC[C@@]21C` [ETHINYL ESTRADIOL], the Activity entry is “inducer [Decrease]”.
